# Measurements reported in patent US20040265917A1, “Methods of measuring the ability of a test compound to inactivate a biological target in cells of a subject” (priority 2003, published 2004).
# Legend:
# MetAP-2 [1] = molecular target: T1, MetAP-2 (Rattus norvegicus, UniProt P38062); assay: Free MetAP-2 ELISA (streptavidin plates, Compound 1 capture) in white blood cells and tissues of rats after a single dose, Phase IIa/IIb; type: in vivo, Sprague-Dawley rats
# T1 construct: percentage of free MetAP-2 remaining in white blood cells, liver, spleen, lymph nodes and thymus; from tissue; host or cells: white blood cells, liver, spleen, lymph nodes, thymus of Sprague-Dawley rats
# T1 sequence (P38062 whole entry): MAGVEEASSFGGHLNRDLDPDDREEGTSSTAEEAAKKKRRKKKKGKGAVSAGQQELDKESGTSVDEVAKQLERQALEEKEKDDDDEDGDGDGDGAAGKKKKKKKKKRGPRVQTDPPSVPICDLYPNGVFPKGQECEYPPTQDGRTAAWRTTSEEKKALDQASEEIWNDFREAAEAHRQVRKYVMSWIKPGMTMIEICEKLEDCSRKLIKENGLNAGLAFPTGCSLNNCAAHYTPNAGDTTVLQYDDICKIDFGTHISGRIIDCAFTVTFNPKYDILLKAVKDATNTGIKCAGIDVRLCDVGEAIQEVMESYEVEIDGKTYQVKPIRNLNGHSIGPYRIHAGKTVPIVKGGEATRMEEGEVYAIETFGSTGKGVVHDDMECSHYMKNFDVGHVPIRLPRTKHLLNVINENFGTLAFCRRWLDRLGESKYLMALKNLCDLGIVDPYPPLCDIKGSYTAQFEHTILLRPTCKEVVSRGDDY
# Description: Determination of Free MetAP-2 in Rat White Blood Cell Lysates and tissues Following Administration of Compound 2
# Preparation of WBC Lysates
# Spleen Homogenization and Lysis Procedure
# Liver, Thymus and Lymph Nodes Homogenization and Lysis Procedure
# Treat 20 μL of each lysate dividing into polypropylene 96-well plates: +Compound 2 Samples (Background Controls): Dilute 40 mM Compound 2 stock 1:4000 for a 10 μM working stock and add 2 μL to background samples for a final concentration of 1 μM Compound 2.
# Dilute 40 mM Compound 1 stock 1:4000 for a 10 μM working stock and add 2 μL of diluted to the samples and 5 μL to the rMetAP2 standards for a final concentration of 1 μM; cover, tap gently to mix, and incubate for 1 hr at room temperature without shaking.
# Remove the streptavidin plates from 4° C. at least 30 min prior to use Dilute each of the samples 1:10 (180 μL into the 20 μL sample) with PBST and mix well.
# Transfer 20 μL and 40 μL aliquots of the diluted samples to streptavidin plates, adding to 30 μL and 10 μL of PBST (for total volumes of 50 μL each), and mix well: duplicate aliquots of each volume for the signal samples (signal sample=−Compound 2) and single aliquots of each volume for the background samples (background samples=+Compound 2).
# Cover and incubate the plates at room temperature on plate shaker for 1 hr at medium speed.
# Wash 3 times manually with 50 μL of 2% (w/v) SDS. Flick plate briskly over sink to remove 2% SDS. Tap on napkin to blot.
# Add 50 μL of 1:500 anti-MetAP2 antibody in PBST using 12 channel pipette, so triplicates receive antibody at same time, cover and incubate at room temp. on plate shaker for 1 hr at medium speed. One plate requires 5 mL of PBST plus 10 μL of anti-MetAP2 antibody.
# Add 50 μL of 1:5000 goat anti-rabbit-HRP antibody in PBST using the 12 channel pipette, cover and incubate at room temperature on plate shaker for 1 hr at medium speed. One plate requires 5 mL of PBST plus 1 μL anti-rabbit-HRP antibody. Aliquot 50 μL per well.
# 10 minutes after adding the TMB substrate, add 100 μL of 1 N H2SO4 and then measure the absorbance at 450 nm.
# The purpose of this study was to determine the percentage of free MetAP-2 remaining in white blood cells, liver, spleen, lymph nodes and thymus as a pharmacodynamic marker of Compound 2 activity after a single dose was administered to Sprague-Dawley rats.
# A repeat examination of MetAP-2 inhibition in WBCs was conducted with various dose levels of Compound 2, administered either IV or PO in female SD rats. In addition, thymus and liver were collected and snap frozen in liquid nitrogen for MetAP-2 analysis.
# At 4, 24, 48, 72, 96, 120 hours post dose whole blood (≧3.0 mL) was taken from anesthetized animals (isoflurane inhalation to effect) via cardiac puncture, using a 20 gauge needle. Blood was immediately placed into EDTA tubes and stored at 4-8° C.
# After blood collection animals were sacrificed by CO2 inhalation. The entire thymus and left lateral lobe of the liver were minced, placed into separate tissue cassettes, and snap frozen in liquid nitrogen for future MetAP-2 analysis.
# To characterize MetAP-2 turnover in tissues after a single oral administration of Compound 2 and to determine if any sex difference existed.
# Blood and tissue samples were collected from SD rats after receiving a single dose of Compound 2. Inhibition of MetAP-2 by Compound 2 was monitored using an ELISA designed to measure the amount of free MetAP-2 in a sample. Cells were lysed and then treated with Compound 1. Compound 1 covalently binds to the active site of MetAP-2 molecules that have not already been derivatized by Compound 2. The resulting biotinylated MetAP-2 is captured onto immobilized streptavidin, then detected with an anti-MetAP-2 antibody and an enzyme-linked secondary antibody. Phase I was used as a pilot study to determine if MetAP-2 inhibition could be monitored in female SD rat white blood cell (WBC) lysates after a single 30 mg/kg dose of Compound 2 administered IV, IP, PO or SC. […]
# MetAP-2 [2] = molecular target: T1, MetAP-2; assay: Phase I pilot free MetAP-2 ELISA (streptavidin beads) in white blood cell lysates after a single dose; type: in vivo, female Sprague-Dawley rats; details: single 30 mg/kg dose IV, IP, PO or SC; female SD rats; all routes of administration
# Description: MetAP-2 inhibition in white blood cells (WBC) was examined after a single dose (30 mg/kg) of Compound 2 , administered either by intravenous (IV), intraperitoneal (IP), oral gavage (PO) or subcutaneous (SC) routes, to female Sprague-Dawley (SD) rats
# A ≧1.0 mL whole blood sample was taken from 3 animals/group/time point (4, 24, 48, 72, 96, and 120 hours post dose) for MetAP-2 analysis. Each animal was bled only once by conscious jugular venipuncture. Blood was immediately placed into EDTA tubes and stored at 4-8° C. Two blood smears from each sample were made for possible differential count analysis.
# Blood and tissue samples were collected from SD rats after receiving a single dose of Compound 2. Inhibition of MetAP-2 by Compound 2 was monitored using an ELISA designed to measure the amount of free MetAP-2 in a sample. Cells were lysed and then treated with Compound 1. […] The resulting biotinylated MetAP-2 is captured onto immobilized streptavidin, then detected with an anti-MetAP-2 antibody and an enzyme-linked secondary antibody. Phase I was used as a pilot study to determine if MetAP-2 inhibition could be monitored in female SD rat white blood cell (WBC) lysates after a single 30 mg/kg dose of Compound 2 administered IV, IP, PO or SC. […] Following this analysis it was determined that signal from sample replicates were highly variable and the assay required revision. […]
# MetAP-2 [3] = molecular target: T2, MetAP-2 (Mus musculus, UniProt O08663); assay: Free MetAP-2 gel shift assay with fluorescent fumagillin analogue (Compound 3) in tumor and liver tissue of mice bearing B16F10 murine melanoma tumors; type: in vivo, C57BL/6 mice; details: 3 or 30 mg/kg PO every other day; samples 24 hours after last dose
# T2 construct: from tissue; host or cells: B16F10 murine melanoma tumor and liver of male C57BL/6 mice
# T2 sequence (O08663 whole entry): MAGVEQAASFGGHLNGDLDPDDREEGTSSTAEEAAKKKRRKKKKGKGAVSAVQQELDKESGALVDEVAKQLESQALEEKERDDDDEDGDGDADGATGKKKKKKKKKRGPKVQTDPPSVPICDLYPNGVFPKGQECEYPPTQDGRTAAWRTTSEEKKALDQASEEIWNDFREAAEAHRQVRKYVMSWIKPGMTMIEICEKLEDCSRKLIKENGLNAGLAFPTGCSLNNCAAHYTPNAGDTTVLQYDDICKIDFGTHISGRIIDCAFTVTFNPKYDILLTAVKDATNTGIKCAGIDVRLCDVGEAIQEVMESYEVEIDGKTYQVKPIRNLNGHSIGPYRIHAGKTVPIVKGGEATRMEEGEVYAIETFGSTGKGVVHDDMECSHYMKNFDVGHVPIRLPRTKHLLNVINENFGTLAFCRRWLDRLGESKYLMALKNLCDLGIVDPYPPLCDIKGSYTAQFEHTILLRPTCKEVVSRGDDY
# Description: (§1) Male C57BL/6 mice were divided into six groups of 10 mice each. Each mouse received an implant of 10^6B16F10 murine melanoma cells in 100 μL of PBS above the leg. At day seven following implantation, one group of mice (Group 6) began a regimen of 100 mg/kg Compound 2 every other day, administered oral gavage (PO). At day 13 post implantation, the remaining groups began receiving treatment as follows: Group 1: […] vehicle (11 % hydroxypropyl cyclodextrin) every other day; Group 2: 5-fluorouracil 50 mg/kg in 1% propylene glycol/D5W, PO every other day; Group 3: Compound 2, 3 mg/kg PO every other day; Group 4: Compound 2, 30 mg/kg PO, every other day; Group 5: Compound 2, 100 mg/kg PO, every other day. In each group, the last dose was administered on day 19 post implantation, and blood, spleen, tumor, thymus and liver samples were collected from the mice 24 hours following the last dose.
# (§2) The tissue samples were prepared for analysis following the protocols set forth in Example 2 and analyzed for free MetAP-2 using the ELISA protocol of Example 2. The prepared tissue samples were also analyzed for free MetAP-2 activity using the following protocol.
# 1. Dilute samples in 1.5 mL eppendorf tubes to their desired concentration in lysis buffer in 10 uL volume. See calculations.
# 2. To each tube, add 1 uL of 10 uM Compound 3stock that has been diluted in lysis buffer.
# 3. Incubate on ice for 1.0 hours. […]
# MetAP-2 [4] = molecular target: T2, MetAP-2; assay: Free MetAP-2 ELISA in tumor and liver tissue of mice bearing B16F10 murine melanoma tumors; type: in vivo, C57BL/6 mice; details: 3 or 30 mg/kg PO every other day; samples 24 hours after last dose
# Description: as §1, §2
# The results of this study are set forth in FIG. 5, which provides a comparison of the results obtained in tumor tissue and liver tissue using the ELISA protocol and those obtained using the gel-shift analysis.
# [5] = Phase IIb, 3 mg/kg PO single dose, 48 hr
smiles,measurement,setting,value
"CO[C@@H]1[C@H](OC(=O)N[C@@H](C(N)=O)C(C)C)CC[C@]2(CO2)[C@H]1[C@@]1(C)O[C@@H]1CC=C(C)C [Compound 2, (1-Carbamoyl-2-methyl-propyl)-carbamic acid-(3R, 4S, 5S, 6R )-5-methoxy-4-[(2R, 3R)-2-methyl-3-(3-methyl-but-2-enyl)-oxiranyl]-1-oxa-spiro[2.5]oct-6-yl ester]",duration of inhibition of MetAP-2 in WBC,"MetAP-2 [1]; Phase IIa, female SD rats, 30 mg/kg PO versus 0.3 and 3 mg/kg PO, single dose",more prolonged inhibition
same,sex differences in MetAP-2 inhibition,"MetAP-2 [1]; Phase IIb, male and female SD rats, 0.3 and 3 mg/kg PO, single dose",no consistent sex differences
same,"effect on free MetAP-2 levels in tissues other than WBC and liver (spleen, thymus, lymph nodes)","MetAP-2 [1]; Phase IIb, 0.3 mg/kg PO, single dose",no significant effect
same,"free MetAP-2 level in WBC, average (±SEM)",MetAP-2 [1]; [5],13%±4%
same,"free MetAP-2 level in liver, average (±SEM)",MetAP-2 [1]; [5],13%±5%
same,"free MetAP-2 level in lymph nodes, average (±SEM)",MetAP-2 [1]; [5],63%±16%
same,"free MetAP-2 level in spleen, average (±SEM)",MetAP-2 [1]; [5],41%±5%
same,free MetAP-2 level in thymus tissue,MetAP-2 [1]; [5],recovered completely
same,"recovery of free MetAP-2 in WBC, 3 mg/kg versus 0.3 mg/kg group","MetAP-2 [1]; Phase IIb, single PO dose, by 72 hr",recovered to similar free MetAP-2 levels
same,rank order of responsiveness of organs (MetAP-2 inhibition relative to WBC),"MetAP-2 [1]; Phase IIb, single PO dose, tissues plotted relative to WBC",liver (most inhibited)>spleen≅lymph nodes>thymus
same,average free MetAP-2 remaining in tissues when no measurable free MetAP-2 in WBC,MetAP-2 [1]; groups with no measurable free MetAP-2 in the WBC,≤ 3%
same,inhibition at 3 mg/kg,"MetAP-2 [1]; rat, Phase IIb, 3 mg/kg PO single dose, four hours after dosing, WBC, liver, spleen, thymus, lymph nodes, read-out: average inhibition of MetAP-2 in all compartments",≥ 95%
same,free MetAP-2 signal in WBC lysates,MetAP-2 [2],reduction followed by a recovery
same,free MetAP-2 levels in liver tissue relative to controls (gel shift),MetAP-2 [3],dose-dependent decrease
same,free MetAP-2 levels in tumor tissue relative to controls (gel shift),MetAP-2 [3],dose-dependent decrease
same,free MetAP-2 levels in liver tissue relative to controls (ELISA),MetAP-2 [4],dose-dependent decrease
same,free MetAP-2 levels in tumor tissue relative to controls (ELISA),MetAP-2 [4],dose-dependent decrease
